Here are results for 27 compounds from patent publication US11021481B2, “Substituted isoindolin-1-ones and 2,3-dihydro-1h-pyrrolo[3,4-c]pyridin-1-ones as HPK1 antagonists” (Nimbus Saturn, Inc., priority 2019, dated 2021).

The experiment deals with HPK1 (Homo sapiens (Human), UniProt Q92918). In words: HPK1 biochemical enzyme assay (microfluidic mobility shift assay). Conditions: 1.5 nM HPK1, ATP 1 mM final, 30 min preincubation, 60 min at RT, Caliper EZ Reader; read-out: HPK1 1000UMATP caliper IC50. In a few lines: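 Ten-point compound titrations (top 3 μM final) preincubated 30 min with HPK1 and substrate, then reaction started with 1 mM ATP and 1 μM substrate, 5 mM MgCl2. After 60 min at RT, reaction terminated and product measured by microfluidic mobility shift.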
HPK1, sequence (Q92918 whole entry): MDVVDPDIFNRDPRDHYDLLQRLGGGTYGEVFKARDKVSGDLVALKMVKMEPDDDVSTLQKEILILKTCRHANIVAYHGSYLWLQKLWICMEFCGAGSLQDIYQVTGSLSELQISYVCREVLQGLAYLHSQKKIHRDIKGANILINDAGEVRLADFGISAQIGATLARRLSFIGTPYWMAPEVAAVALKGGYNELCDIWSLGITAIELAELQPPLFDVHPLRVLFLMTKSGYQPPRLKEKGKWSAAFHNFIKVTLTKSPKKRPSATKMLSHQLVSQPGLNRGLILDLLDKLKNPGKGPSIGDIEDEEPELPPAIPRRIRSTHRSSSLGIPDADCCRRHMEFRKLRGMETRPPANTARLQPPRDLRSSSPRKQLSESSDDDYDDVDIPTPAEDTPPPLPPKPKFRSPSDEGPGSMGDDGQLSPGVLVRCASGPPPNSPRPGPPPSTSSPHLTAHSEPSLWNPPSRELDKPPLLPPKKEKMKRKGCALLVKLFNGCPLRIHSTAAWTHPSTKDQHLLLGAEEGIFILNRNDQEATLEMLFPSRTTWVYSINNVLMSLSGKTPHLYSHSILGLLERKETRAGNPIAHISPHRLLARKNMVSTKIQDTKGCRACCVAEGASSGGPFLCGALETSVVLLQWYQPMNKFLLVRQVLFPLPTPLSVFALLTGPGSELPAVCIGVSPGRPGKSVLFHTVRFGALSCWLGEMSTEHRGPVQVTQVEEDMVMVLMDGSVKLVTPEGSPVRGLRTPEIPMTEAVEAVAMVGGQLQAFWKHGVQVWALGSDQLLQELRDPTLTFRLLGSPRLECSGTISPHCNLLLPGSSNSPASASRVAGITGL
On to `CNCc1nc(Nc2ccc(-c3cnc4cc(F)ccn34)c3c2C(=O)NC3)ccc1C1CCOC1` (stereo in doubt) [I-723, (R)-4-(7-fluoroimidazo [1,2-a]pyridin-3-yl)-7-((6-((methyl-amino)methyl)-5-(tetrahydrofuran-3-yl)pyridin-2-yl)amino)isoin-dolin-1-one], for which the IC50 was less than 100 nM.

With `COCCN(C)Cc1nc(Nc2ccc(-c3cnc4cc(F)ccn34)c3c2C(=O)NC3)ccc1C1CCOC1` (stereo in doubt) [I-727, (R)-4-(7-fluoroimidazo [1,2-a]pyridin-3-yl)-7-((6-(((2-methoxyethyl) (methyl)-amino)methyl)-5-(tetrahydrofuran-3-yl)pyridin-2-yl)amino)isoin-dolin-1-one], the IC50 was less than 100 nM.

Consider `COCCN(C)Cc1nc(Nc2ccc(-c3cnc4cc(F)ccn34)c3c2C(=O)NC3)ccc1C1CCOC1` (stereo in doubt) [I-728, (S)-4-(7-fluoroimidazo [1,2-a]pyridin-3-yl)-7-(6-(((2-methoxyethyl) (methyl)-amino)methyl)-5-(tetrahydrofuran-3-yl)pyridin-2-yl)amino)isoin-dolin-1-one], for which the IC50 was less than 100 nM.

As to `CC(C)N(C)Cc1nc(Nc2ccc(-c3cnc4cc(F)ccn34)c3c2C(=O)NC3)ccc1C1CCOC1` (stereo in doubt) [I-729, (S)-4-(7-fluoroimidazo [1,2-a]pyridin-3-yl)-7-((6-((isopropyl(methyl)amino)methyl)-5-(tetrahydrofuran-3-yl)pyridin-2-yl)amino)isoin-dolin-1-one], the IC50 is less than 100 nM.

For `CC(C)N(C)Cc1nc(Nc2ccc(-c3cnc4cc(F)ccn34)c3c2C(=O)NC3)ccc1C1CCOC1` (stereo in doubt) [I-730, (R)-4-(7-fluoroimidazo [1,2-a]pyridin-3-yl)-7-((6-((isopropyl(methyl)amino)methyl)-5-(tetrahydrofuran-3-yl)pyridin-2-yl)amino)isoin-dolin-1-one], the IC50 is less than 100 nM.

`Cc1ccc2c(-c3ccc(Nc4ccc(C5CCOC5)c(CN(C)C)n4)c4c3CNC4=O)cnn2c1` (stereo in doubt) [I-731, (S)-7-((6-((dimethylamino)-methyl)-5-(tetrahydrofuran-3-yl)pyridin-2-yl)amino)-4-(6-methylpyra-zolo[1,5-a]pyridin-3-yl)isoindolin-1-one]: the IC50 is less than 100 nM.

Consider `Cc1ccc2c(-c3ccc(Nc4ccc(C5CCOC5)c(CN(C)C)n4)c4c3CNC4=O)cnn2c1` (stereo in doubt) [I-732, (R)-7-((6-((dimethylamino)-methyl)-5-(tetrahydrofuran-3-yl)pyridin-2-yl)amino)-4-(6-methylpyra-zolo[1,5-a]pyridin-3-yl)isoindolin-1-one], for which the IC50 was less than 100 nM.

`CN(CCO)Cc1nc(Nc2ccc(-c3cnc4cc(F)ccn34)c3c2C(=O)NC3)ccc1C1CCOC1` (stereo in doubt) [I-733, (S)-4-(7-fluoroimidazo [1,2-a]pyridin-3-yl)-7-(6-(((2-hydroxy-ethyl)(methyl)-amino)methyl)-5-(tetrahydrofuran-3-yl)pyridin-2-yl)amino)isoin-dolin-1-one]: the IC50 is less than 100 nM.

Consider `CN(CCO)Cc1nc(Nc2ccc(-c3cnc4cc(F)ccn34)c3c2C(=O)NC3)ccc1C1CCOC1` (stereo in doubt) [I-734, (R)-4-(7-fluoroimidazo [1,2-a]pyridin-3-yl)-7-((6-(((2-hydroxyethy (methyl)amino)methyl)-5-(tetrahydrofuran-3-yl)pyridin-2-yl)amino)isoin-dolin-1-one], for which the IC50 is less than 100 nM.

With `O=C1NCc2c(-c3cnc4cc(F)ccn34)ccc(Nc3ccc([C@H]4CCOC4)c(CN4CC[C@H](F)C4)n3)c21` (stereo in doubt) [I-735, 4-(7-fluoroimidazo [1,2-a]pyridin-3-yl)-7-((6-(((S)-3-fluoropyrrol-idin-1-yl)methyl)-5-((S)-tetrahydrofuran-3-yl)pyridin-2-yl)amino)isoin-dolin-1-one], the IC50 is less than 100 nM.

In the case of `O=C1NCc2c(-c3cnc4cc(F)ccn34)ccc(Nc3ccc([C@@H]4CCOC4)c(CN4CC[C@H](F)C4)n3)c21` (stereo in doubt) [I-736], the IC50 was less than 100 nM.

In the case of `O=C1NCc2c(-c3cnc4cc(F)ccn34)ccc(Nc3ccc([C@H]4CCOC4)c(CN4CC[C@@H](F)C4)n3)c21` (stereo in doubt) [I-741, 4-(7-fluoroimidazo [1,2-a]pyridin-3-yl)-7-((6-(((R)-3-fluoropyrrol-idin-1-yl)methyl)-5-((S)-tetrahydrofur-an-3-yl)pyridin-2-yl)amino)isoin-dolin-1-one], the IC50 is less than 100 nM.

On to `O=C1NCc2c(-c3cnc4cc(F)ccn34)ccc(Nc3ccc([C@@H]4CCOC4)c(CN4CC[C@@H](F)C4)n3)c21` (stereo in doubt) [I-742], for which the concentration for half-maximal inhibition (IC50) is less than 100 nM.

`CN(C)Cc1nc(Nc2ccc(-c3cnc4cc(C(F)F)ccn34)c3c2C(=O)NC3)ccc1C1CCOC1` (stereo in doubt) [I-752, (S)-4-(7-(difluoromethyl)-imidazo[1,2-a]pyridin-3-yl)-7-((6-((dimethylamino)-methyl)-5-(tetrahydrofuran-3-yl)pyridin-2-yl)amino)isoin-dolin-1-one]: the IC50 is less than 100 nM.

For `CN(C)Cc1nc(Nc2ccc(-c3cnc4cc(C(F)F)ccn34)c3c2C(=O)NC3)ccc1C1CCOC1` (stereo in doubt) [I-753, (R)-4-(7-(difluoromethyl)-imidazo[1,2-a]pyridin-3-yl)-7-((6-((dimethylamino)-methyl)-5-(tetrahydrofuran-3-yl)pyridin-2-yl)amino)isoin-dolin-1-one], the IC50 is less than 100 nM.

As to `CN(Cc1nc(Nc2ccc(-c3cnc4cc(F)ccn34)c3c2C(=O)NC3)ccc1C1CCOC1)CC(F)(F)F` (stereo in doubt) [I-754, (S)-4-(7-fluoroimidazo [1,2-a]pyridin-3-yl)-7-((6-((methyl(2,2.2-trifluoroethyl)amino)methyl)-5-(tetrahydrofuran-3-yl)pyridin-2-yl)amino)isoin-dolin-1-one], the IC50 is less than 100 nM.

Take `CN(Cc1nc(Nc2ccc(-c3cnc4cc(F)ccn34)c3c2C(=O)NC3)ccc1C1CCOC1)CC(F)(F)F` (stereo in doubt) [I-765, (R)-4-(7-fluoroimidazo [1,2-a]pyridin-3-yl)-7-((6-((methyl(2,2,2 trifluoroethyl)amino)methyl)-5-(tetrahydrofuran-3-yl)pyridin-2-yl)amino)isoin-dolin-1-one]: the IC50 was less than 100 nM.

As to `O=C1NCc2c(-c3cnc4cc(F)ccn34)ccc(Nc3ccc(C4CCOC4)c(N4CCNCC4)n3)c21` (stereo in doubt) [I-772, (S)-4-(7-fluoroimidazo [1,2-a]pyridin-3-yl)-7-((6-(piperazin-1-yl)-5-(tetrahydrofuran-3-yl)pyridin-2-yl)amino)isoin-dolin-1-one], the IC50 was less than 100 nM.

Turning to `O=C1NCc2c(-c3cnc4cc(F)ccn34)ccc(Nc3ccc(C4CCOC4)c(N4CCNCC4)n3)c21` (stereo in doubt) [I-773, (R)-4-(7-fluoroimidazo [1,2-a]pyridin-3-yl)-7-((6-(piperazin-1-yl)-5-(tetrahydrofuran-3-yl)pyridin-2-yl)amino)isoin-dolin-1-one], the IC50 was 100 to 1000 nM.

In the case of `CN(C)C1CN(c2nc(Nc3ccc(-c4cnc5cc(F)ccn45)c4c3C(=O)NC4)ccc2C2CCOC2)C1` (stereo in doubt) [I-786, (S)-7-((6-(3-(dimctliylami-no)azetidin-1-yl)-5-(tetrahydrofur-an-3-yl)pyridin-2-yl)amino)-4-(7-fluoroimidazo [1,2-a]pyridin-3-yl)isoindolin-1-one], the 50% inhibitory concentration (IC50) was less than 100 nM.

In the case of `CN(C)C1CN(c2nc(Nc3ccc(-c4cnc5cc(F)ccn45)c4c3C(=O)NC4)ccc2C2CCOC2)C1` (stereo in doubt) [I-787, (R)-7-((6-(3-(dimethylami-no)azetidin-1-yl)-5-(tetrahydrofuran-3-yl)pyridin-2-yl)amino)-4-(7-fluoroimidazo [1,2-a]pyridin-3-yl)isoindolin-1-one], the IC50 is less than 100 nM.

Turning to `CO[C@H]1CCN(Cc2nc(Nc3ccc(-c4cnc5cc(F)ccn45)c4c3C(=O)NC4)ccc2[C@H]2CCOC2)C1` (stereo in doubt) [I-789], the IC50 is less than 100 nM.

Consider `CN(C)Cc1nc(Nc2ccc(-c3cnc4cc(F)ccn34)c3c2C(=O)NC3)cnc1C1CCOC1` (stereo in doubt) [I-799, (S)-7-((6-((dimethylamino)-methyl)-5-(tetrahydrofu-ran-3-yl)pyrazin-2-yl)amino)-4-(7-fluoroimidazo [1,2-a]pyridin-3-yl)isoindolm-1-one], for which the IC50 was less than 100 nM.

On to `CN(C)CCc1nc(Nc2cnc(-c3ccnc4c3ccn4C)c3c2C(=O)NC3)ccc1C1CCOC1` (stereo in doubt) [I-807, (R)-7-((6-(2-(dimethylami-no)ethyl)-5-(tetrahydrofuran-3-yl)pyridin-2-yl)amino)-3-(1-methyl-1H-pyrrolo[2,3-b)pyridin-4-yl)-2,3-dihydro-1H-pyrrolo[3,4-c]pyridin-1-one], for which the IC50 is less than 100 nM.

Take `CN(C)CCc1nc(Nc2cnc(-c3ccnc4c3ccn4C)c3c2C(=O)NC3)ccc1C1CCOC1` (stereo in doubt) [I-808, (S)-7-((6-(2-(dimothylami-no)ethyl)-5-(tetrahydrofuran-3-yl)pyridin-2-yl)amino)-4-(1-methyl-1H-pyrrolo[2,3-b]pyridin-4-yl)-2,3-dihydro-1H-pyrrolo[3,4-c]pyridin-1-one]: the concentration for half-maximal inhibition (IC50) is less than 100 nM.

In the case of `O=C1NCc2c(-c3c[nH]c4ccccc34)ncc(Nc3ccc(N4CCNCC4)cn3)c21` [I-1, 4-(1H-indol-3-yl)-7-[(5-piperazin-1-yl-2-pyridyl)amino]-2,3-dihydropyrrolo [3,4-c]pyridin-1-one], the IC50 was in the range of 100 to 1000 nM.

On to `CN1CCN(c2ccc(Nc3cnc(-c4c[nH]c5ccccc45)c4c3C(=O)NC4)nc2)CC1` [I-2, 4-(1H-indol-3-yl)-7-[[5-(4-methylpiperazin-1-yl)-2-pyridyl]amino]-2,3-dihydropyrrolo [3,4-c]pyridin-1-one], for which the IC50 lay in the range of 100 to 1000 nM.
